Tests used:
[1] = Tolerability and hepatic functions in Beagle dogs, 7 day repeat oral administration; format: in vivo, Beagle dog
From the text: To understand its toxicokinetics and potential effect on hepatic functions, EXAMPLE 6 was orally dosed to Beagle dogs for 7 consecutive days.

[2] = target: indoleamine 2, 3-dioxygenase (IDO1) (Homo sapiens, UniProt P14902); experiment: IDO1 HeLa RapidFire MS Assay (kynurenine by mass spectrometry); format: cell-based; conditions: HeLa cells stimulated with IFN-γ, 2 days; recorded as pIC50; read-out: IDO1 HeLa PXC50 (converted)
Procedure: IDO1 HeLa RapidFire MS Assay
(§1) Compounds of the present invention were tested via high-throughput cellular assays utilizing detection of kynurenine via mass spectrometry and cytotoxicity as end-points. […] Compounds with IDO1 inhibitory properties decreased the amount of kynurenine produced by the cells via the tryptophan catabolic pathway. Cellular toxicity due to the effect of compound treatment was measured using CellTiter-Glo® reagent (CTG) (Promega Corporation, Madison, Wis.), which is based on luminescent detection of ATP, an indicator of metabolically active cells.
(§2) In preparation for the assays, test compounds were serially diluted 3-fold in DMSO from a typical top concentration of 1 mM or 5 mM and plated at 0.5 μL in 384-well, polystyrene, clear bottom, tissue culture treated plates with lids (Greiner Bio-One, Kremsmünster, Austria) to generate 11-point dose response curves. Low control wells (0% kynurenine or 100% cytotoxicity) contained either 0.5 μL of DMSO in the presence of unstimulated (−IFN-γ) HeLa cells for the mass spectrometry assay or 0.5 μL of DMSO in the absence of cells for the cytotoxicity assay, and high control wells (100% kynurenine or 0% cytotoxicity) contained 0.5 μL of DMSO in the presence of stimulated (+IFN-γ) HeLa cells for both the mass spectrometry and cytotoxicity assays.
(§3) Frozen stocks of HeLa cells were washed and recovered in DMEM high glucose medium with HEPES (Thermo Fisher Scientific, Inc., Waltham, Mass.) supplemented with 10% v/v certified fetal bovine serum (FBS) (Thermo Fisher Scientific, Inc., Waltham, Mass.), and 1× penicillin-streptomycin antibiotic solution (Thermo Fisher Scientific, Inc., Waltham, Mass.). The cells were diluted to 100,000 cells/mL in the supplemented DMEM medium. 50 μL of either the cell suspension, for the mass spectrometry assay, or medium alone, for the cytotoxicity assay, were added to the low control wells, on the previously prepared 384-well compound plates, resulting in 5,000 cells/well or 0 cells/well respectively. IFN-γ was added to the remaining cell suspension at a final concentration of 10 nM, and 50 μL of the stimulated cells were added to all remaining wells on the 384-well compound plates. The plates, with lids, were then placed in a 37° C., 5% CO2 humidified incubator for 2 days.
(§4) Following incubation, the 384-well plates were removed from the incubator and allowed to equilibrate to room temperature for 30 minutes. For the cytotoxicity assay, CellTiter-Glo® was prepared according to the manufacturer's instructions, and 10 μL were added to each plate well. After a twenty minute incubation at room temperature, luminescence was read on an EnVision® Multilabel Reader (PerkinElmer Inc., Waltham, Mass.). For the mass spectrometry assay, 10 μL of supernatant from each well of the compound-treated plates were added to 40 μL of acetonitrile, containing 10 μM of an internal standard for normalization, in 384-well, polypropylene, V-bottom plates (Greiner Bio-One, Kremsmünster, Austria) to extract the organic analytes. Following centrifugation at 2000 rpm for 10 minutes, 10 μL from each well of the acetonitrile extraction plates were added to 90 μL of sterile, distilled H2O in 384-well, polypropylene, V-bottom plates for analysis of kynurenine and the internal standard on the RapidFire 300 (Agilent Technologies, Santa Clara, Calif.) and 4000 QTRAP MS (SCIEX, Framingham, Mass.). MS data were integrated using Agilent Technologies' RapidFire Integrator software, and data were normalized for analysis as a ratio of kynurenine to the internal standard.

[3] = test system: human peripheral blood mononuclear cells (PBMC); experiment: PBMC cytotoxicity assay (CellTiter-Glo); format: cell-based; conditions: cytotoxicity in stimulated PBMC, recorded as pCC50
[4] = test system: human epithelial HeLa cells; experiment: HeLa cytotoxicity assay (CellTiter-Glo); format: cell-based; conditions: cytotoxicity in stimulated HeLa cells, recorded as pCC50
Procedure: as §1, §2, §3, §4

Sequence of indoleamine 2, 3-dioxygenase (IDO1) (P14902 whole entry): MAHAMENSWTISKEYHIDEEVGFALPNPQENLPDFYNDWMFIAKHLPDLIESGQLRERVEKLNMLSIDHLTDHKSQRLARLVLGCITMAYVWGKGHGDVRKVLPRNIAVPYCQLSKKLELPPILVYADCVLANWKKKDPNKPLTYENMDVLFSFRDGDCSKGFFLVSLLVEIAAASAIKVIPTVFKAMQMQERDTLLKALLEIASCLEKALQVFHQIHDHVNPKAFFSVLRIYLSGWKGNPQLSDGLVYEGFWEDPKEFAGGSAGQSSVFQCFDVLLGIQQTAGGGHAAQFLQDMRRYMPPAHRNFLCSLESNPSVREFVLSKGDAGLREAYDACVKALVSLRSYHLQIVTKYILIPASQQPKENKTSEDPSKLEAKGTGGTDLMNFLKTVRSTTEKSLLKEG

CC(C)CN(c1ncc([C@H](C)CC(=O)O)cc1Nc1ccc(Cl)cn1)C1CCOCC1 [Example 6, (R)-3-(5-((5-chloropyridin-2-yl)amino)-6-(isobutyl(tetrahydro-2H-pyran-4-yl)amino)pyridin-3-yl)butanoic acid]
clinical observations ([1]; 20 mg/kg PO BID for 7 days): no clinical observations
tolerability throughout the study ([1]; 20 mg/kg PO BID for 7 days): well tolerated
Hepatic functions measured by serum ALT, AST, ALP and T-Bil levels ([1]; 20 mg/kg PO BID for 7 days, FIG. 2): in the normal variable ranges
Body weights ([1]; male and female dogs over the study, FIG. 1): constant
IC50 [2]: 7.94 nM
PBMC_TOX PXC50 [3]: <5.0
HELA_IDO1_TOX_PXC50 [4]: <5

From patent US10787442B2, “Modulators of indoleamine 2,3-dioxygenase” (GLAXOSMITHKLINE INTELLECTUAL PROPERTY DEVELOPMENT LIMITED, priority 2016, dated 2020)
